{"source": "ChEMBL document CHEMBL5154930", "about": "“Design, Synthesis, and Biological Evaluations of DOT1L Peptide Mimetics Targeting the Protein-Protein Interactions between DOT1L and MLL-AF9/MLL-ENL” (J Med Chem, 2022)", "key": {"MOLM-13 [1]": {"system": "MOLM-13", "experiment": "Down regulation of ARID1B gene in human MOLM-13 cells by RNA-sequencing analysis", "type": "functional, cell-based"}, "MOLM-13 [2]": {"system": "MOLM-13", "experiment": "Down regulation of HOXA5 gene in human MOLM-13 cells by RNA-sequencing analysis", "type": "functional, cell-based"}, "MOLM-13 [3]": {"system": "MOLM-13", "experiment": "Inhibition of methylation of H3K79 in human MOLM-13 cells assessed as inhibition of methylation at HOXA5 gene cluster by chromatin immunoprecipitation assay", "type": "functional, cell-based"}, "[4]": {"experiment": "Stability in human plasma assessed as compound remaining measured upto 1440 mins by HPLC analysis", "type": "ADME, cell-free", "conditions": "read-out: Stability"}, "MOLM-13 [5]": {"system": "MOLM-13", "experiment": "Down regulation of HOXA10 gene in human MOLM-13 cells by RNA-sequencing analysis", "type": "functional, cell-based"}, "MOLM-13 [6]": {"system": "MOLM-13", "experiment": "Down regulation of MEIS1 gene in human MOLM-13 cells by RNA-sequencing analysis", "type": "functional, cell-based"}, "MOLM-13 [7]": {"system": "MOLM-13", "experiment": "Down regulation of GBE1 gene in human MOLM-13 cells by RNA-sequencing analysis", "type": "functional, cell-based"}, "MOLM-13 [8]": {"system": "MOLM-13", "experiment": "Inhibition of methylation of H3K79 in human MOLM-13 cells assessed as inhibition of methylation at MEIS1-AS3 gene cluster by chromatin immunoprecipitation assay", "type": "functional, cell-based"}, "MOLM-13 [9]": {"system": "MOLM-13", "experiment": "Inhibition of methylation of H3K79 in human MOLM-13 cells assessed as inhibition of methylation at HOXA4 gene cluster by chromatin immunoprecipitation assay", "type": "functional, cell-based"}, "MOLM-13 [10]": {"system": "MOLM-13", "experiment": "Inhibition of methylation of H3K79 in human MOLM-13 cells assessed as inhibition of methylation at HOXA11 gene cluster by chromatin immunoprecipitation assay", "type": "functional, cell-based"}, "MOLM-13 [11]": {"system": "MOLM-13", "experiment": "Inhibition of methylation of H3K79 in human MOLM-13 cells assessed as inhibition of methylation at […] gene cluster by chromatin immunoprecipitation assay", "type": "functional, cell-based"}, "Protein AF-9": {"molecular_target": "T1, Protein AF-9 (Homo sapiens, UniProt P42568)", "T1 sequence (P42568 whole entry)": "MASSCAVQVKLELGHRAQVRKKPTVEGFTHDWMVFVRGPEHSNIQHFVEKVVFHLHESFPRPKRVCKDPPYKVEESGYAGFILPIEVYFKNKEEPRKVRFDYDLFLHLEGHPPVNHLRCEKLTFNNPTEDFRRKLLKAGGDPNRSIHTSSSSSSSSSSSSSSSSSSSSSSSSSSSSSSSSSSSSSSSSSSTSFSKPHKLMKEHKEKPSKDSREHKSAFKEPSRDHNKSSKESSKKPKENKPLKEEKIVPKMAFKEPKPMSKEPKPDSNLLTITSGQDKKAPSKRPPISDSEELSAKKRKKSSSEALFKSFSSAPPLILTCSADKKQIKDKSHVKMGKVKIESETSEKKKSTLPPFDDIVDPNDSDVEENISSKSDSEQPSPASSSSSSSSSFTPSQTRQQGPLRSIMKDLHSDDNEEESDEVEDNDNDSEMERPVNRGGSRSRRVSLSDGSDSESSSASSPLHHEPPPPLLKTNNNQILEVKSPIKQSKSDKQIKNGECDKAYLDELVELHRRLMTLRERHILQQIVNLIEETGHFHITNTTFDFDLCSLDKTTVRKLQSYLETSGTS", "experiment": "Binding affinity to MBP-tagged human recombinant AF9 (487 to 568 residues) incubated for 40 mins by measuring fluorescence polarization by microplate reader method"}, "MOLM-13 [12]": {"system": "MOLM-13", "experiment": "Inhibition of methylation of H3K79 in human MOLM-13 cells assessed as inhibition of methylation at HOXA9 gene cluster by chromatin immunoprecipitation assay", "type": "functional, cell-based"}, "MOLM-13 [13]": {"system": "MOLM-13", "experiment": "Down regulation of SSBP2 gene in human MOLM-13 cells by RNA-sequencing analysis", "type": "functional, cell-based"}, "MOLM-13 [14]": {"system": "MOLM-13", "experiment": "Induction of apoptosis in human MOLM-13 cells treated for 7 days by Annexin V-FITC/PI staining based flow cytometry analysis", "type": "functional, cell-based", "conditions": "dose 0.25-1 µM, time 7.0 day"}, "MOLM-13 [15]": {"system": "MOLM-13", "experiment": "Inhibition of methylation of H3K79 in human MOLM-13 cells assessed as inhibition of methylation at HOXA1 gene cluster by chromatin immunoprecipitation assay", "type": "functional, cell-based"}, "MOLM-13 [16]": {"system": "MOLM-13", "experiment": "Down regulation of CDK6 gene in human MOLM-13 cells by RNA-sequencing analysis", "type": "functional, cell-based"}, "MOLM-13 [17]": {"system": "MOLM-13", "experiment": "Down regulation of PBX3 gene in human MOLM-13 cells by RNA-sequencing analysis", "type": "functional, cell-based"}, "MOLM-13 [18]": {"system": "MOLM-13", "experiment": "Down regulation of SKP2 gene in human MOLM-13 cells by RNA-sequencing analysis", "type": "functional, cell-based"}, "MOLM-13 [19]": {"system": "MOLM-13", "experiment": "Inhibition of methylation of H3K79 in human MOLM-13 cells assessed as inhibition of methylation at HOXA2 gene cluster by chromatin immunoprecipitation assay", "type": "functional, cell-based"}, "MOLM-13 [20]": {"system": "MOLM-13", "experiment": "Down regulation of […] gene in human MOLM-13 cells by RNA-sequencing analysis", "type": "functional, cell-based"}, "MOLM-13 [21]": {"system": "MOLM-13", "experiment": "Inhibition of methylation of H3K79 in human MOLM-13 cells assessed as inhibition of methylation at HOXA3 gene cluster by chromatin immunoprecipitation assay", "type": "functional, cell-based"}, "MOLM-13 [22]": {"system": "MOLM-13", "experiment": "Down regulation of HPGD gene in human MOLM-13 cells by RNA-sequencing analysis", "type": "functional, cell-based"}, "MOLM-13 [23]": {"system": "MOLM-13", "experiment": "cells", "conditions": "Homo sapiens, MOLM-13, 168 h", "description": "Anticancer activity against human MOLM-13 cells harbouring MLL-AF9 assessed as inhibition of cell growth treated for 7 days measured by CCK-8 kit method"}, "MOLM-13 [24]": {"system": "MOLM-13", "experiment": "cells", "conditions": "Homo sapiens, MOLM-13, 216 h", "description": "Anticancer activity against human MOLM-13 cells harbouring MLL-AF9 assessed as inhibition of cell growth treated for 9 days measured by CCK-8 kit method"}, "MOLM-13 [25]": {"system": "MOLM-13", "experiment": "cells", "conditions": "Homo sapiens, MOLM-13, 192 h", "description": "Anticancer activity against human MOLM-13 cells harbouring MLL-AF9 assessed as inhibition of cell growth treated for 8 days measured by CCK-8 kit method"}, "MOLM-13 [26]": {"system": "MOLM-13", "experiment": "Down regulation of CNOT6L gene in human MOLM-13 cells by RNA-sequencing analysis", "type": "functional, cell-based"}, "[27]": {"molecular_target": "T2, Protein AF-9 (Homo sapiens) (UniProt P42568)", "T2 sequence (whole entry)": "T1 sequence (P42568 whole entry)", "experiment": "Binding affinity to AF9 in human MOLM-13 cells assessed as thermal stabilization of protein at 60 degree Celsius at 1 uM for 12 hrs by CETSA", "type": "cell-based"}, "MOLM-13 [28]": {"system": "MOLM-13", "experiment": "Down regulation of JMJD1C gene in human MOLM-13 cells by RNA-sequencing analysis", "type": "functional, cell-based"}, "MOLM-13 [29]": {"system": "MOLM-13", "experiment": "Down regulation of HOXA3 gene in human MOLM-13 cells by RNA-sequencing analysis", "type": "functional, cell-based"}, "KOPN-8": {"system": "KOPN-8", "experiment": "cells", "conditions": "Homo sapiens, KOPN-8, 192 h", "description": "Anticancer activity against human KOPN-8 cells harbouring MLL-ENL assessed as inhibition of cell growth treated for 8 days measured by CCK-8 kit method"}, "MOLM-13 [30]": {"system": "MOLM-13", "experiment": "cells", "conditions": "Homo sapiens, MOLM-13, 120 h", "description": "Anticancer activity against human MOLM-13 cells harbouring MLL-AF9 assessed as inhibition of cell growth treated for 5 days measured by CCK-8 kit method"}, "MOLM-13 [31]": {"system": "MOLM-13", "experiment": "Inhibition of methylation of H3K79 in human MOLM-13 cells assessed as inhibition of methylation at MEIS1 gene cluster by chromatin immunoprecipitation assay", "type": "functional, cell-based"}, "[32]": {"experiment": "Apparent permeability across apical to basolateral side in human Caco-2 cells", "type": "ADME, cell-based"}, "MOLM-13 [33]": {"system": "MOLM-13", "experiment": "Down regulation of TUBA1B gene in human MOLM-13 cells by RNA-sequencing analysis", "type": "functional, cell-based"}, "MOLM-13 [34]": {"system": "MOLM-13", "experiment": "Inhibition of methylation of H3K79 in human MOLM-13 cells assessed as inhibition of methylation at HOXA7 gene cluster by chromatin immunoprecipitation assay", "type": "functional, cell-based"}, "MOLM-13 [35]": {"system": "MOLM-13", "experiment": "Down regulation of CDKN1B gene in human MOLM-13 cells by RNA-sequencing analysis", "type": "functional, cell-based"}, "MOLM-13 [36]": {"system": "MOLM-13", "experiment": "Inhibition of methylation of H3K79 in human MOLM-13 cells assessed as inhibition of methylation at HOXA10 gene cluster by chromatin immunoprecipitation assay", "type": "functional, cell-based"}, "MOLM-13 [37]": {"system": "MOLM-13", "experiment": "Down regulation of ARID2 gene in human MOLM-13 cells by RNA-sequencing analysis", "type": "functional, cell-based"}}, "note": "Calls of active or inactive are those of the source. The calls are words filed in the database; no cut-off is given here. Non-standard residues stand in square brackets, D forms with d. Residues, ends and D or L forms follow the SMILES beside them. *: point of attachment. X1 = C[C@H](N*)c1nc2cccc(-c3ccccc3)c2[nH]1; Ala(cPent) = N[C@@H](CC1CCCC1)C(=O)O; Pentanoyl(4-Me) = CC(C)CCC(=O)*; Dap(Me) = CNC[C@H](N)C(=O)O"}
{"smiles": "CNC[C@H](NC(=O)[C@@H](NC(=O)[C@@H]1CCCN1C(=O)CCC(C)C)C(C)C)C(=O)N[C@@H](CC1CCCC1)C(=O)N[C@@H](C)c1nc2cccc(-c3ccccc3)c2[nH]1", "note": "({Pentanoyl(4-Me)}-PV[Dap(Me)][Ala(cPent)]-X1)", "values": [{"measurement": "Activity", "setting": "MOLM-13 [1]", "result": "Active"}, {"measurement": "Activity", "setting": "MOLM-13 [2]", "result": "Active"}, {"measurement": "inhibition", "setting": "MOLM-13 [3]", "result": "Active"}, {"measurement": "remaining at 24 h", "setting": "[4]", "result": 81.5, "unit": "%"}, {"measurement": "Activity", "setting": "MOLM-13 [5]", "result": "Active"}, {"measurement": "Activity", "setting": "MOLM-13 [6]", "result": "Active"}, {"measurement": "Activity", "setting": "MOLM-13 [7]", "result": "Active"}, {"measurement": "inhibition", "setting": "MOLM-13 [8]", "result": "Active"}, {"measurement": "inhibition", "setting": "MOLM-13 [9]", "result": "Active"}, {"measurement": "inhibition", "setting": "MOLM-13 [10]", "result": "Active"}, {"measurement": "inhibition", "setting": "MOLM-13 [11]", "result": "Active"}, {"measurement": "Ki", "setting": "Protein AF-9", "result": 9, "unit": "nM"}, {"measurement": "inhibition", "setting": "MOLM-13 [12]", "result": "Active"}, {"measurement": "Activity", "setting": "MOLM-13 [13]", "result": "Active"}, {"measurement": "Activity", "setting": "MOLM-13 [14]", "result": "Active"}, {"measurement": "inhibition", "setting": "MOLM-13 [15]", "result": "Active"}, {"measurement": "Activity", "setting": "MOLM-13 [16]", "result": "Active"}, {"measurement": "Activity", "setting": "MOLM-13 [17]", "result": "Active"}, {"measurement": "Activity", "setting": "MOLM-13 [18]", "result": "Active"}, {"measurement": "inhibition", "setting": "MOLM-13 [19]", "result": "Active"}, {"measurement": "Activity", "setting": "MOLM-13 [20]", "result": "Active"}, {"measurement": "inhibition", "setting": "MOLM-13 [21]", "result": "Active"}, {"measurement": "Activity", "setting": "MOLM-13 [22]", "result": "Active"}, {"measurement": "IC50", "setting": "MOLM-13 [23]", "result": 167, "unit": "nM"}, {"measurement": "IC50", "setting": "MOLM-13 [24]", "result": 44, "unit": "nM"}, {"measurement": "IC50", "setting": "MOLM-13 [25]", "result": 70, "unit": "nM"}, {"measurement": "Activity", "setting": "MOLM-13 [26]", "result": "Active"}, {"measurement": "Activity", "setting": "[27]", "result": "Active"}, {"measurement": "Activity", "setting": "MOLM-13 [28]", "result": "Active"}, {"measurement": "Activity", "setting": "MOLM-13 [29]", "result": "Active"}, {"measurement": "IC50", "setting": "KOPN-8", "result": 100, "unit": "nM"}, {"measurement": "IC50", "setting": "MOLM-13 [30]", "result": 703, "unit": "nM"}, {"measurement": "inhibition", "setting": "MOLM-13 [31]", "result": "Active"}, {"measurement": "Papp A→B", "setting": "[32]", "result": 1.97, "unit": "×10⁻⁶ cm/s"}, {"measurement": "Activity", "setting": "MOLM-13 [33]", "result": "Active"}, {"measurement": "inhibition", "setting": "MOLM-13 [34]", "result": "Active"}, {"measurement": "Activity", "setting": "MOLM-13 [35]", "result": "Active"}, {"measurement": "inhibition", "setting": "MOLM-13 [36]", "result": "Active"}, {"measurement": "Activity", "setting": "MOLM-13 [37]", "result": "Active"}]}
